For data set [1], the target named is T1, 5-HT7 receptor (Homo sapiens, UniProt P34969).
T1 construct: expressed in transfected cells
Description: 5-HT7 receptor binding experiment. The note with it: human cloned receptors; ligand 3H-LSD 1.0 nM; non-specific clozapine 25 μM. On the procedure:
For the determination of 5-HT7 receptor binding human cloned receptors were used. The α1 receptor binding was determined from isolated frontal cortex preparation of male Wistar rats weighing 120-200 g. The 5-HT uptake measurements were performed on samples from isolated cortex of male rats. The protein contents of membrane preparations were determined by the method of Lowry (1951).
In the course of 5-HT7 and α1 receptor binding studies the ligands were ^3H-lizergic acid diethyl amide (LSD) (1.0 nM) and ^3H-prazosine (0.3 nM). Clozapine (25 μM) and prazosine (1 μM) were used for the measurement of non-specific bindings. The α1 binding studies were performed according to the methods of Reader and Greengrass (Reader, T. A., Briere, R., Grondin, L.: J. Neural Transm. 68, p. 79 (1987); Greengrass, P., Brenner, R.: Eur. J. Pharmacol. 55, p. 323 (1979)). In the serotonin uptake inhibition studies the ligand was tritiated serotonin, the non-specific ligand was fluoxetine (100 μM). On the test results Ki values were calculated.

Structures are written as SMILES. Counter-ions that a name gives are not always drawn.

The record followed here is patent publication US20070219209A1, “Piperazine Derivatives Of Alkyl Oxindoles” (GYÓGYSZERGYÁR RT., priority 2004, published 2007).

T1 sequence (P34969 whole entry): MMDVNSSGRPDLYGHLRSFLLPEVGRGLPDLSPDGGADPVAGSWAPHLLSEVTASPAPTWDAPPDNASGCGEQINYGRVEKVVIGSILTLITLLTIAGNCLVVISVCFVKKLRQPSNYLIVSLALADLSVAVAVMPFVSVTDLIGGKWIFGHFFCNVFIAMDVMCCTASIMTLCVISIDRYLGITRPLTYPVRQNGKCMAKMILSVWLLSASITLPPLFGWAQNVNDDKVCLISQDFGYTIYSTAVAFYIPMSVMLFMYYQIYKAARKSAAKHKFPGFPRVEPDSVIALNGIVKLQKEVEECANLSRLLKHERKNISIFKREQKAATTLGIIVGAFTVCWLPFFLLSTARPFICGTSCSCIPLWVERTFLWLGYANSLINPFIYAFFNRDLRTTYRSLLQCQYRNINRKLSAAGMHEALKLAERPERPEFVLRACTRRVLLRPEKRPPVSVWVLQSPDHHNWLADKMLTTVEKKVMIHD

For `O=C1Nc2ccc(F)cc2C1CCCCN1CCN(c2ccccc2)CC1` (stereo not drawn), the melting point was in the range of 140 to 144 °C.

As for `O=C1Nc2ccc(F)cc2C1CCCCN1CCN(c2cccc(Cl)c2)CC1` (stereo not drawn) (as salt: hydrochloride) [Example 6, 3-{4-[4-(3-Chlorophenyl)-piperazin-1-yl]-butyl}-5-fluoro-1,3-dihydro-2H-indol-2-one monohydrochloride], the melting point was in the range of 180 to 184 °C.

`O=C1Nc2ccc(F)cc2C1CCCCN1CCN(c2ccc(Cl)cc2)CC1` (stereo not drawn) (as salt: hydrochloride) [Example 7, 3-{4-[4-(4-Chlorophenyl)-piperazin-1-yl]-butyl}-5-fluoro-1,3-dihydro-2H-indol-2-one monohydrochloride] came in with a melting point of 193 to 196 °C.

`O=C1Nc2cc(F)ccc2C1CCCCN1CCN(c2ccc(Cl)cc2)CC1` (stereo not drawn) (as salt: hydrochloride) [Example 8, 3-{4-[4-(4-Chlorophenyl)-piperazin-1-yl]-butyl}-6-fluoro-1,3-dihydro-2H-indol-2-one monohydrochloride]: the melting point fell in the range of 149 to 151 °C.

The compound `O=C1Nc2ccccc2C1CCCCN1CCN(c2ccc(F)c(Cl)c2)CC1` (stereo not drawn) (as salt: hydrochloride) [Example 14, 3-{4-[4-(3-Chloro-4-fluorophenyl)-piperazin-1-yl]-butyl}-1,3-dihydro-2H-indol-2-one monohydrochloride] returned a melting point of 180 to 183 °C.

With `O=C1Nc2ccccc2C1CCCCN1CCN(c2ccc(Cl)c(C(F)(F)F)c2)CC1` (stereo not drawn) (as salt: hydrochloride) [Example 15, 3-{4-[4-(4-Chloro-3-trifluoromethylphenyl)-piperazin-1-yl]-butyl}-1,3-dihydro-2H-indol-2-one monohydrochloride], the melting point is 123 to 125 °C.

In data set [1], `O=C1Nc2ccc(F)cc2C1CCCCN1CCN(c2cccc(Cl)c2)CC1` (stereo not drawn) [Example 6, 3-{4-[4-(3-Chlorophenyl)-piperazin-1-yl]-butyl}-5-fluoro-1,3-dihydro-2H-indol-2-one monohydrochloride] gave a Ki of less than 100 µM.

The compound `O=C1Nc2ccc(F)cc2C1CCCCN1CCN(c2ccc(Cl)cc2)CC1` (stereo not drawn) [Example 7, 3-{4-[4-(4-Chlorophenyl)-piperazin-1-yl]-butyl}-5-fluoro-1,3-dihydro-2H-indol-2-one monohydrochloride] registered a Ki in data set [1] of less than 100 µM.

The compound `O=C1Nc2cc(F)ccc2C1CCCCN1CCN(c2ccc(Cl)cc2)CC1` (stereo not drawn) [Example 8, 3-{4-[4-(4-Chlorophenyl)-piperazin-1-yl]-butyl}-6-fluoro-1,3-dihydro-2H-indol-2-one monohydrochloride] displayed a Ki in data set [1] of less than 100 µM.

As for `Cc1ccc2c(c1)C(CCCCN1CCN(c3cccc(Cl)c3)CC1)C(=O)N2` (stereo not drawn) [Example 9, 3-{4-[4-(3-Chlorophenyl)-piperazin-1-yl]-butyl}-5-methyl-1,3-dihydro-2H-indol-2-one], the melting point is 122 to 124 °C. In data set [1], the Ki was less than 100 µM.

`Cc1ccc2c(c1)C(CCCCN1CCN(c3ccc(Cl)cc3)CC1)C(=O)N2` (stereo not drawn) [Example 10, 3-{4-[4-(4-Chlorophenyl)-piperazin-1-yl]-butyl}-5-methyl-1,3-dihydro-2H-indol-2-one] displayed a melting point of 159 to 161 °C. In addition, the Ki in data set [1] was less than 100 µM.

Compound `O=C1Nc2ccccc2C1CCCCN1CCN(c2ccc(F)cc2)CC1` (stereo not drawn) [Example 11, 3-{4-[4-(4-Fluorophenyl)-piperazin-1-yl]-butyl}-1,3-dihydro-2H-indol-2-one] registered a melting point of 113 to 115 °C. The same compound came in with a Ki in data set [1] of less than 100 µM.

`O=C1Nc2ccccc2C1CCCCN1CCN(c2ccc(Cl)c(Cl)c2)CC1` (stereo not drawn) [Example 12, 3-{4-[4-(3,4-Dichlorophenyl)-piperazin-1-yl]-butyl}-1,3-dihydro-2H-indol-2-one]: the melting point lay in the range of 112 to 114 °C. In data set [1], this compound displayed a Ki of less than 100 µM.

Consider `O=C1Nc2ccccc2C1CCCCN1CCN(c2ccc(F)c(Cl)c2)CC1` (stereo not drawn) [Example 14, 3-{4-[4-(3-Chloro-4-fluorophenyl)-piperazin-1-yl]-butyl}-1,3-dihydro-2H-indol-2-one monohydrochloride], for which, in data set [1], the Ki is less than 100 µM.

As for `O=C1Nc2ccccc2C1CCCCN1CCN(c2ccc(Cl)c(C(F)(F)F)c2)CC1` (stereo not drawn) [Example 15, 3-{4-[4-(4-Chloro-3-trifluoromethylphenyl)-piperazin-1-yl]-butyl}-1,3-dihydro-2H-indol-2-one monohydrochloride], the Ki in data set [1] is less than 100 µM.

With `O=C1Nc2ccc(F)cc2C1CCCCN1CCN(c2ccc(F)cc2)CC1` (stereo not drawn) [Example 16, 5-Fluoro-3-{4-[4-(4-fluorophenyl)-piperazin-1-yl]-butyl}-1,3-dihydro-2H-indol-2-one], the melting point was in the range of 135 to 137 °C. For the same compound, the Ki in data set [1] is less than 100 µM.

In turn, `O=C1Nc2ccccc2C1CCCCN1CCN(c2ccc(Cl)cc2)CC1` (stereo not drawn) [Example 17, 3-{4-[4-(4-Chlorophenyl)-piperazin-1-yl]-butyl}-1,3-dihydro-2H-indol-2-one] showed a melting point of 136 to 137 °C. The same compound showed a Ki in data set [1] of less than 100 µM.

`O=C1Nc2ccccc2C1CCCCN1CCN(c2cccc(Cl)c2)CC1` (stereo not drawn) [Example 18, 3-{4-[4-(3-Chlorophenyl)-piperazin-1-yl]-butyl}-1,3-dihydro-2H-indol-2-one]: the melting point was in the range of 112 to 114 °C. In data set [1], this compound came in with an inhibition constant (Ki) of less than 100 µM.

For the compound `O=C1Nc2ccc(F)cc2C1CCCCN1CCN(c2ccc(Cl)c(Cl)c2)CC1` (stereo not drawn) [Example 23, 3-{4-[4-(3,4-dichlorophenyl)-piperazine-1-yl]-butyl}-5-fluoro-1,3-dihydro-2H-indol-2-one], the melting point fell in the range of 118 to 120 °C.

With `O=C1Nc2ccccc2C1CCCCN1CCN(c2ccccc2)CC1` (stereo not drawn) [Example 24, 3-[4-(4-phenyl-piperazin-1-yl)-butyl]-1,3-dihydro-2H-indol-2-one], the melting point fell in the range of 110 to 113 °C.
